Consider 12 compounds from patent US8143394B2, “Pyrido(3,2-d)pyrimidines useful for treating viral infections” (Gilead Sciences, Inc., priority 2006, dated 2012).

The EC50 is the concentration giving half of the maximal effect. As a reminder, the CC50 is the concentration giving 50% cytotoxicity. A higher CC50 goes with lower toxicity to the cells.

Like-named read-outs stand apart in the source and are kept apart here.

One data set has as its target HCV replicon. The data set can be described thus: Anti-HCV replicon assay (EC50, luciferase readout). Format: cell-based. The following applies: human hepatoma Huh-7 cell line harbouring a HCV replicon, 3 days, luciferase, read-out: EC50. The essentials:
(§1)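 Huh-7 cells bearing HCV replicon, 6000 per well, exposed 3 days at 37 °C to 3-fold compound dilutions (0.5% DMSO final where used). EC50 from luciferase luminescence after lysis; CC50 (50% growth inhibition) from CellTiter-Glo luminescence in parallel plates.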
In general terms: In antiviral work, replicon cells carry a viral genome segment that copies itself.

The subject of a further data set is Huh-7 HCV replicon cells. The data set can be described thus: CC50 assay (CellTiter-Glo) in Huh-7 HCV replicon cells. The following applies: 3 days, 50% cytostatic concentration. Format: cell-based, human. The essentials:
as §1
On the technique in general: Cellular ATP, detected with luciferase, serves as a proxy for viable cell number.

Test in data set [1]: as above
Format: cell-based, human. The following applies: human, 50% cytostatic concentration. The essentials:
as §1

With “4-ethoxy-6-(5-methyl-4H-[1,2,4]triazol-3-yl)-pyrido[3,2-d]pyrimidin-2-ylamine [Example 88]”, the EC50 at HCV replicon was 0.3 to 1 µM. Besides, the CC50 in the data set on Huh-7 HCV replicon cells lay within 10 to 20 µM.

As for `CN1CCCC1CCNC(=O)c1ccc(-c2ccc3nc(N)nc(O[C@H]4CCOC4)c3n2)cc1` (stereo partly drawn) [Example 78, 4-[2-Amino-4-(tetrahydro-furan-3-yloxy)-pyrido[3,2-d]pyrimidin-6-yl]-N-[2-(1-methyl-pyrrolidin-2-yl)-ethyl]-benzamide], in the data set on HCV replicon (Hepatitis C virus, 72 h), the EC50 was over 1 µM. For the same compound, the CC50 at 3 days in data set [1] is over 20 µM.

With `Nc1nc(O[C@H]2CCOC2)c2nc(-c3ccc(C(=O)NCCCN4CCCC4)cc3)ccc2n1` [Example 79, 4-[2-Amino-4-(tetrahydro-furan-3-yloxy)-pyrido[3,2-d]pyrimidin-6-yl]-N-(3-pyrrolidin-1-yl-propyl)-benzamide], the EC50 in the data set on HCV replicon (Hepatitis C virus, 72 h) is 0.3 to 1 µM. This compound also yielded a CC50 at 3 days in data set [1] of over 20 µM.

For the compound `CC(C)(CN1CCCC1)NC(=O)c1ccc(-c2ccc3nc(N)nc(O[C@H]4CCOC4)c3n2)cc1` [Example 80, 4-[2-Amino-4-(tetrahydro-furan-3-yloxy)-pyrido[3,2-d]pyrimidin-6-yl]-N-(1,1-dimethyl-2-pyrrolidin-1-yl-ethyl)-benzamide], the concentration giving a half-maximal response (EC50) in the data set on HCV replicon (Hepatitis C virus, 72 h) was under 0.3 µM. The CC50 at 3 days in data set [1] was in the range of 10 to 20 µM.

In the case of `CC(C)(CN1CCOCC1)NC(=O)c1ccc(-c2ccc3nc(N)nc(O[C@H]4CCOC4)c3n2)cc1` [Example 81, 4-[2-Amino-4-(tetrahydro-furan-3-yloxy)-pyrido[3,2-d]pyrimidin-6-yl]-N-(1,1-dimethyl-2-morpholin-4-yl-ethyl)-benzamide], the EC50 in the data set on HCV replicon (Hepatitis C virus, 72 h) was under 0.3 µM. The compound also showed a CC50 at 3 days in data set [1] of over 20 µM.

`Nc1nc(O[C@H]2CCOC2)c2nc(-c3ccc(C(=O)NCC(F)(F)F)cc3)ccc2n1` [Example 82, 4-[2-Amino-4-(tetrahydro-furan-3-yloxy)-pyrido[3,2-d]pyrimidin-6-yl]-N-(2,2,2-trifluoro-ethyl)-benzamide]: in the data set on HCV replicon (Hepatitis C virus, 72 h), the EC50 was under 0.3 µM. Moreover, the CC50 at 3 days in data set [1] lay in the range of 10 to 20 µM.

Consider `Nc1nc(O[C@H]2CCOC2)c2nc(-c3ccc(C(=O)NCCN4CCCC4)cc3)ccc2n1` [Example 83, 4-[2-Amino-4-(tetrahydro-furan-3-yloxy)-pyrido[3,2-d]pyrimidin-6-yl]-N-(2-pyrrolidin-1-yl-ethyl)-benzamide], for which, in the data set with HCV replicon (Hepatitis C virus, 72 h), the EC50 was under 0.3 µM. In addition, the CC50 at 3 days in data set [1] is over 20 µM.

As for `Nc1nc(O[C@H]2CCOC2)c2nc(-c3ccc(C(=O)NCCN4CCOCC4)cc3)ccc2n1` [Example 84, 4-[2-Amino-4-(tetrahydro-furan-3-yloxy)-pyrido[3,2-d]pyrimidin-6-yl]-N-(2-morpholin-4-yl-ethyl)-benzamide], in the data set on HCV replicon (Hepatitis C virus, 72 h), the EC50 was under 0.3 µM. The CC50 at 3 days in data set [1] is over 20 µM.

For the compound `CCOc1nc(N)nc2ccc(-c3ccc(-c4nnc(C)o4)cc3)nc12` [Example 85, 4-Ethoxy-6-[4-(5-methyl-[1,3,4]oxadiazol-2-yl)-phenyl]-pyrido[3,2-d]pyrimidin-2-ylamine], in the data set on HCV replicon (Hepatitis C virus, 72 h), the EC50 is over 1 µM. The compound also displayed a CC50 at 3 days in data set [1] of over 20 µM.

For the compound `CCOc1nc(N)nc2ccc(-c3ccc(C(=O)Nc4ccc(F)cc4)cc3)nc12` [Example 86, 4-(2-Amino-4-ethoxy-pyrido[3,2-d]pyrimidin-6-yl)-N-(4-fluoro-phenyl)-benzamide], in the data set with HCV replicon (Hepatitis C virus, 72 h), the EC50 lay within 0.3 to 1 µM. The CC50 at 3 days in data set [1] was over 20 µM.

As for `CCOc1nc(N)nc2ccc(-c3ccc(C(=O)Nc4ccccc4)cc3)nc12` [Example 87, 4-(2-Amino-4-ethoxy-pyrido[3,2-d]pyrimidin-6-yl)-N-phenyl-benzamide], the EC50 with HCV replicon (Hepatitis C virus, 72 h) was over 1 µM. This compound gave a cytotoxic concentration (CC50) at 3 days in data set [1] of over 20 µM.

For the compound `CCOc1nc(N)nc2ccc(-c3ccc(C(=O)NC4CC4)s3)nc12` [Example 89, 2-amino-4-ethoxy-6-(2-(N-(cyclopropyl)carbamoyl)-5-thiophenyl)pyrido[3,2-d]pyrimidine], the EC50 in the data set with HCV replicon (Hepatitis C virus, 72 h) was under 0.3 µM. In data set [1], the CC50 at 3 days was over 20 µM.
